Converted amounts (≈) assume the structure as drawn.
Assays:
[1] = In vivo inhibitory activity against Staphylococcus aureus MB2985 (methicillin-susceptible) in mouse systemic infection model; assay type: functional
Mus musculus [2] = organism: Mus musculus; assay: Plasma MIC against staphylococcus aureus infection in mice in presence of human albumin fraction V (21.5 mg/mL); assay type: functional, organism-based
Staphylococcus aureus = assay: Compound was tested in vitro for its activity against methicillin-Resistant Staphylococcus Aureus(MRSA 12); assay type: functional
[3] = Compound was evaluated in vivo for percent binding to human albumin fraction V.; assay type: functional, organism-based
[4] = Compound was tested in vitro for its activity against Methicillin-Resistant Coagulase Negative Staphylococci(MRCNS 9); assay type: functional; settings: Staphylococcus
Mus musculus [5] = organism: Mus musculus; assay: Effective dose against Staphylococcus aureus MB2985 (methicillin-susceptible) in mouse systemic infection model; assay type: functional
Mus musculus [6] = assay: Compound was evaluated in vivo for percent binding to human albumin fraction V; assay type: functional, organism-based
Mus musculus [7] = assay: Compound was evaluated in vivo for plasma MIC in presence of human albumin fraction V (21.5 mg/mL); assay type: functional, organism-based

C[C@@H](O)[C@H]1C(=O)N2C(C(=O)O)=C(SCCNC=N)C[C@H]12 [IMIPENEM ANHYDROUS]
MIC [1]: 0.01 µg/mL (≈ 0.0334 µM) | Plasma MIC (Mus musculus [2]): 0.014 µg/mL | MIC50 (Staphylococcus aureus): 32 µg/mL (≈ 107 µM) | MIC90 (Staphylococcus aureus): 128 µg/mL (≈ 428 µM) | PPB [3]: < 5% | MIC50 [4]: > 128 µg/mL | MIC90 [4]: > 128 µg/mL | ED50 (Mus musculus [5]): 0.026 mg/kg

C[C@@H](O)[C@H]1C(=O)N2C(C(=O)O)=C(c3cc(C(=N)N)c4oc5ccccc5c4c3)C[C@H]12
MIC [1]: 0.031 µg/mL (≈ 0.0765 µM) | Plasma MIC (Mus musculus [2]): 0.031 µg/mL | MIC50 (Staphylococcus aureus): 1 µg/mL (≈ 2.47 µM) | MIC90 (Staphylococcus aureus): 2 µg/mL (≈ 4.93 µM) | PPB [3]: 71% | MIC50 [4]: 1 µg/mL (≈ 2.47 µM) | MIC90 [4]: 2 µg/mL (≈ 4.93 µM) | ED50 (Mus musculus [5]): < 0.096 mg/kg

C[C@@H](O)[C@H]1C(=O)N2C(C(=O)O)=C(c3cc(C#N)c4oc5ccccc5c4c3)C[C@H]12
MIC [1]: < 0.016 µg/mL | MIC50 (Staphylococcus aureus): 0.5 µg/mL (≈ 1.29 µM) | MIC90 (Staphylococcus aureus): 1 µg/mL (≈ 2.57 µM) | MIC50 [4]: 1 µg/mL (≈ 2.57 µM) | MIC90 [4]: 1 µg/mL (≈ 2.57 µM) | PPB (Mus musculus [6]): 98% | ED50 (Mus musculus [5]): 1.44 mg/kg | Plasma MIC (Mus musculus [7]): > 32 µg/mL

C[C@@H](O)[C@H]1C(=O)N2C(C(=O)O)=C(c3cc(C(=N)N(C)C)c4oc5ccccc5c4c3)C[C@H]12
MIC50 (Staphylococcus aureus): 2 µg/mL (≈ 4.61 µM) | MIC90 (Staphylococcus aureus): 8 µg/mL (≈ 18.5 µM) | MIC50 [4]: 4 µg/mL (≈ 9.23 µM) | MIC90 [4]: 8 µg/mL (≈ 18.5 µM)

C[C@@H](O)[C@H]1C(=O)N2C(C(=O)O)=C(c3cc(C4=NCCCN4)c4oc5ccccc5c4c3)C[C@H]12
MIC50 (Staphylococcus aureus): 1 µg/mL (≈ 2.24 µM) | MIC90 (Staphylococcus aureus): 2 µg/mL (≈ 4.49 µM) | MIC50 [4]: 2 µg/mL (≈ 4.49 µM) | MIC90 [4]: 4 µg/mL (≈ 8.98 µM)

C[C@@H](O)[C@H]1C(=O)N2C(C(=O)O)=C(c3cc(C(N)=O)c4oc5ccccc5c4c3)C[C@H]12
MIC [1]: 0.031 µg/mL (≈ 0.0763 µM) | MIC50 (Staphylococcus aureus): 0.5 µg/mL (≈ 1.23 µM) | MIC90 (Staphylococcus aureus): 1 µg/mL (≈ 2.46 µM) | PPB [3]: 95% | MIC50 [4]: 2 µg/mL (≈ 4.92 µM) | MIC90 [4]: 2 µg/mL (≈ 4.92 µM) | ED50 (Mus musculus [5]): 0.55 mg/kg | Plasma MIC (Mus musculus [7]): 1 µg/mL

C[C@@H](O)[C@H]1C(=O)N2C(C(=O)O)=C(c3ccc4oc5ccccc5c4c3)C[C@H]12
MIC50 (Staphylococcus aureus): 2 µg/mL (≈ 5.5 µM) | MIC90 (Staphylococcus aureus): 4 µg/mL (≈ 11 µM) | MIC50 [4]: 4 µg/mL (≈ 11 µM) | MIC90 [4]: 8 µg/mL (≈ 22 µM)

CN[C@H](CC(C)C)C(=O)N[C@H]1C(=O)N[C@@H](CC(N)=O)C(=O)N[C@H]2C(=O)N[C@H]3C(=O)N[C@H](C(=O)N[C@H](C(=O)O)c4cc(O)cc(O)c4-c4cc3ccc4O)[C@H](O)c3ccc(c(Cl)c3)Oc3cc2cc(c3O[C@@H]2O[C@H](CO)[C@@H](O)[C@H](O)[C@H]2O[C@H]2C[C@](C)(N)[C@H](O)[C@H](C)O2)Oc2ccc(cc2Cl)[C@H]1O [VANCOMYCIN]
MIC50 (Staphylococcus aureus): 1 µg/mL (≈ 0.69 µM) | MIC90 (Staphylococcus aureus): 2 µg/mL (≈ 1.38 µM) | MIC50 [4]: 4 µg/mL (≈ 2.76 µM) | MIC90 [4]: 8 µg/mL (≈ 5.52 µM)

C[C@@H](O)[C@H]1C(=O)N2C(C(=O)O)=C(c3cc(C4=NCCN4)c4oc5ccccc5c4c3)C[C@H]12
MIC [1]: ≤ 0.016 µg/mL | Plasma MIC (Mus musculus [2]): 0.063 µg/mL | MIC50 (Staphylococcus aureus): 1 µg/mL (≈ 2.32 µM) | MIC90 (Staphylococcus aureus): 1 µg/mL (≈ 2.32 µM) | PPB [3]: 34% | MIC50 [4]: 1 µg/mL (≈ 2.32 µM) | MIC90 [4]: 1 µg/mL (≈ 2.32 µM) | ED50 (Mus musculus [5]): 0.135 mg/kg

CNC(=N)c1cc(C2=C(C(=O)O)N3C(=O)[C@H]([C@@H](C)O)[C@H]3C2)cc2c1oc1ccccc12
MIC50 (Staphylococcus aureus): 1 µg/mL (≈ 2.38 µM) | MIC90 (Staphylococcus aureus): 4 µg/mL (≈ 9.54 µM) | MIC50 [4]: 2 µg/mL (≈ 4.77 µM) | MIC90 [4]: 2 µg/mL (≈ 4.77 µM)

C[C@@H](O)[C@H]1C(=O)N2C(C(=O)[O-])=C(c3cc(C4=[N+](C)CCN4C)c4oc5ccccc5c4c3)C[C@H]12
MIC50 (Staphylococcus aureus): 8 µg/mL (≈ 17.4 µM) | MIC90 (Staphylococcus aureus): 32 µg/mL (≈ 69.6 µM) | MIC50 [4]: 16 µg/mL (≈ 34.8 µM) | MIC90 [4]: 32 µg/mL (≈ 69.6 µM)

C[C@@H](O)[C@H]1C(=O)N2C(C(=O)O)=C(c3cc(C4=NCCN4C)c4oc5ccccc5c4c3)C[C@H]12
MIC50 (Staphylococcus aureus): 2 µg/mL (≈ 4.49 µM) | MIC90 (Staphylococcus aureus): 4 µg/mL (≈ 8.98 µM) | MIC50 [4]: 2 µg/mL (≈ 4.49 µM) | MIC90 [4]: 4 µg/mL (≈ 8.98 µM)

C[C@@H](O)[C@H]1C(=O)N2C(C(=O)[O-])=C(c3cc(-c4n(C)cc[n+]4C)c4oc5ccccc5c4c3)C[C@H]12
MIC50 (Staphylococcus aureus): 4 µg/mL (≈ 8.74 µM) | MIC90 (Staphylococcus aureus): 8 µg/mL (≈ 17.5 µM) | MIC50 [4]: 8 µg/mL (≈ 17.5 µM) | MIC90 [4]: 16 µg/mL (≈ 35 µM)

Source: ChEMBL document CHEMBL1131850, “The synthesis and anti-MRSA activity of amidinium-substituted 2-dibenzofuranylcarbapenems” (1999)
